Measured values published in PubChem BioAssay AID256 (DTP/NCI, 2004).
“And” between values parts separate entries of the source, which are not always exact repeats. Equal entries are not always repeated. Toxic doses and inconclusive results are not listed.

Tested on: CD2F1 mice, L1210 leukemia ip, survival T/C
Assay: NCI In Vivo Anticancer Drug Screen. Data for tumor model L1210 Leukemia (intraperitoneal) in CD2F1 (CDF1) mice
Conditions: endpoint: mean survival time, higher = longer survival
In short: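 Each value reflects a quotient of treated over vehicle control outcomes in mice with a transplanted tumor.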

[1] = dose: 100.0 mg/kg/injection, schedule: Q04DX003 (ip), vehicle: Klucel (hydroxypropylcellulose) (HPC)
[2] = dose: 200.0 mg/kg/injection, schedule: Q04DX003 (ip), vehicle: Klucel (hydroxypropylcellulose) (HPC)
[3] = dose: 25.0 mg/kg/injection, schedule: Q04DX002 (ip), vehicle: saline with Tween-80
[4] = dose: 50.0 mg/kg/injection, schedule: Q04DX002 (ip), vehicle: saline with Tween-80
[5] = dose: 100.0 mg/kg/injection, schedule: Q04DX002 (ip), vehicle: saline with Tween-80
[6] = dose: 400.0 mg/kg/injection, schedule: Q04DX002 (ip), vehicle: saline with Tween-80
[7] = dose: 50.0 mg/kg/injection, schedule: Q01DX009 (ip), vehicle: saline with Tween-80
[8] = dose: 100.0 mg/kg/injection, schedule: Q01DX009 (ip), vehicle: saline with Tween-80
[9] = dose: 200.0 mg/kg/injection, schedule: Q01DX009 (ip), vehicle: saline with Tween-80
[10] = dose: 400.0 mg/kg/injection, schedule: Q01DX009 (ip), vehicle: saline with Tween-80
[11] = dose: 100.0 mg/kg/injection, schedule: Q04DX003 (ip), vehicle: saline with Tween-80
[12] = dose: 200.0 mg/kg/injection, schedule: Q04DX003 (ip), vehicle: saline with Tween-80
[13] = dose: 400.0 mg/kg/injection, schedule: Q04DX003 (ip), vehicle: saline with Tween-80
[14] = dose: 200.0 mg/kg/injection, schedule: Q04DX002 (ip), vehicle: saline with Tween-80
[15] = dose: 50.0 mg/kg/injection, schedule: Q01DX009 (ip), vehicle: saline
[16] = dose: 100.0 mg/kg/injection, schedule: Q01DX009 (ip), vehicle: saline
[17] = dose: 100.0 mg/kg/injection, schedule: Q01DX001 (ip), vehicle: saline with Tween-80
[18] = dose: 200.0 mg/kg/injection, schedule: Q01DX001 (ip), vehicle: saline with Tween-80
[19] = dose: 400.0 mg/kg/injection, schedule: Q01DX001 (ip), vehicle: saline with Tween-80

SMILES: O=C(c1ccccc1)C1(Br)CCCCC1
- T/C (dose: 50.0 mg/kg/injection, schedule: Q04DX003 (ip), vehicle: saline): 95 % of control
- T/C [1]: 101 % of control
- T/C (dose: 100.0 mg/kg/injection, schedule: Q04DX003 (ip), vehicle: saline): 96 % of control
- T/C [2]: 96 % of control
- T/C (dose: 200.0 mg/kg/injection, schedule: Q04DX003 (ip), vehicle: saline): 93 % of control
- T/C (dose: 400.0 mg/kg/injection, schedule: Q04DX003 (ip), vehicle: Klucel (hydroxypropylcellulose) (HPC)): 106 % of control
- T/C (dose: 400.0 mg/kg/injection, schedule: Q04DX003 (ip), vehicle: saline): 98 % of control

SMILES: CCCOC(=O)COc1ccc(F)cc1F
- T/C [3]: 103 % of control
- T/C [4]: 100 % of control
- T/C [5]: 92 % of control and 95 % of control
- T/C [6]: 95 % of control

SMILES: CS(=O)(=O)OCCN(CCOS(C)(=O)=O)c1ccc(N=Nc2ccccc2C(=O)O)cc1
- T/C (dose: 1.56 mg/kg/injection, schedule: Q01DX009 (ip), vehicle: Klucel (hydroxypropylcellulose) (HPC)): 124 % of control
- T/C (dose: 3.12 mg/kg/injection, schedule: Q01DX009 (ip), vehicle: Klucel (hydroxypropylcellulose) (HPC)): 155 % of control
- T/C (dose: 6.25 mg/kg/injection, schedule: Q01DX009 (ip), vehicle: Klucel (hydroxypropylcellulose) (HPC)): 176 % of control

SMILES: CC1OC(=O)C2(C(C)C)CC12 (stereo not given)
- T/C (dose: 9.5 mg/kg/injection, schedule: Q01DX001 (ip), vehicle: other): 103 % of control
- T/C (dose: 19.0 mg/kg/injection, schedule: Q01DX001 (ip), vehicle: other): 106 % of control

SMILES: CSc1nc(=O)n(C2OC(CO)C(O)C2O)nc1SCc1ccccc1 (stereo not given)
- T/C (dose: 12.5 mg/kg/injection, schedule: Q01DX005 (ip), vehicle: distilled water + Tween-80): 94 % of control
- T/C (dose: 25.0 mg/kg/injection, schedule: Q01DX005 (ip), vehicle: distilled water + Tween-80): 94 % of control
- T/C (dose: 50.0 mg/kg/injection, schedule: Q01DX005 (ip), vehicle: distilled water + Tween-80): 92 % of control

SMILES: O=c1oc(-c2ccccc2)nc2cc(Cl)ccc12
- T/C (dose: 25.0 mg/kg/injection, schedule: Q01DX009 (ip), vehicle: saline with Tween-80): 105 % of control
- T/C [7]: 100 % of control
- T/C [8]: 105 % of control

SMILES: O=S1(=O)c2ccccc2Oc2ccccc21
- T/C [8]: 97 % of control
- T/C [9]: 107 % of control
- T/C [10]: 95 % of control

SMILES: CCOC(=O)c1c(C)[nH]c(C)cc1=O
- T/C (dose: 100.0 mg/kg/injection, schedule: Q04DX002 (ip), vehicle: saline): 103 % of control
- T/C (dose: 200.0 mg/kg/injection, schedule: Q04DX002 (ip), vehicle: saline): 108 % of control

SMILES: COC(=O)c1ccc(O)c(O)c1
- T/C [8]: 102 % of control
- T/C [11]: 99 % of control
- T/C [9]: 101 % of control
- T/C [12]: 102 % of control
- T/C [10]: 90 % of control
- T/C [13]: 91 % of control

SMILES: C=CN
- T/C [3]: 95 % of control
- T/C [4]: 106 % of control
- T/C [5]: 98 % of control
- T/C [14]: 98 % of control

SMILES: COc1cc(OC)c(NC(=O)Nc2ccc(Nc3ccccc3)cc2)cc1Cl
- T/C [7]: 90 % of control
- T/C [8]: 94 % of control
- T/C [9]: 90 % of control

SMILES: CCCC(=O)N(CC)CC
- T/C [15]: 94 % of control
- T/C [16]: 98 % of control
- T/C (dose: 200.0 mg/kg/injection, schedule: Q01DX009 (ip), vehicle: saline): 98 % of control

SMILES: CC12CCC3(CO3)CC1CCC1C2CCC2(C)C1CCC21CO1 (stereo not given)
- T/C (dose: 75.0 mg/kg/injection, schedule: Q01DX001 (ip), vehicle: saline with Tween-80): 104 % of control
- T/C (dose: 150.0 mg/kg/injection, schedule: Q01DX001 (ip), vehicle: saline with Tween-80): 106 % of control
- T/C (dose: 300.0 mg/kg/injection, schedule: Q01DX001 (ip), vehicle: saline with Tween-80): 113 % of control

SMILES: Cc1ccc(C(=O)C2CC(Br)C(Br)CC2C(=O)c2ccc(C)cc2)cc1 (stereo not given)
- T/C [8]: 90 % of control
- T/C [11]: 100 % of control
- T/C [9]: 86 % of control
- T/C [12]: 100 % of control
- T/C [10]: 86 % of control
- T/C [13]: 97 % of control

SMILES: CCN(CC)C(=O)C(C)C1CCC2C3CC=C4CC(OC(=O)c5cc([N+](=O)[O-])cc([N+](=O)[O-])c5)CCC4(C)C3CCC12C (stereo not given)
- T/C [17]: 94 % of control
- T/C [18]: 94 % of control
- T/C [19]: 98 % of control

SMILES: O=C1OC(=O)C2C1CC1C(=O)OC(=O)C12 (stereo not given)
- T/C (dose: 50.0 mg/kg/injection, schedule: Q04DX003 (ip), vehicle: Klucel (hydroxypropylcellulose) (HPC)): 97 % of control
- T/C [1]: 100 % of control
- T/C [2]: 96 % of control

SMILES: N#CCCCCCCN=[N+]=[N-]
- T/C (dose: 75.0 mg/kg/injection, schedule: Q01DX001 (ip), vehicle: saline): 98 % of control
- T/C (dose: 150.0 mg/kg/injection, schedule: Q01DX001 (ip), vehicle: saline): 98 % of control

SMILES: CCOC(=O)c1ccc(NC(=O)OCc2ccco2)cc1
- T/C [8]: 92 % of control and 98 % of control
- T/C [5]: 88 % of control and 102 % of control
- T/C [11]: 94 % of control
- T/C [9]: 92 % of control and 100 % of control
- T/C [14]: 86 % of control and 91 % of control
- T/C [12]: 87 % of control
- T/C [10]: 113 % of control and 96 % of control
- T/C [6]: 87 % of control and 88 % of control
- T/C [13]: 89 % of control

SMILES: COC(=O)CC1(C(=O)OC)OC(=O)c2ccccc2N1C (stereo not given)
- T/C [8]: 103 % of control
- T/C [9]: 106 % of control
- T/C [10]: 101 % of control

SMILES: O/N=C/c1ccccn1
- T/C (dose: 75.0 mg/kg/injection, schedule: Q04DX003 (ip), vehicle: saline with Tween-80): 96 % of control
- T/C (dose: 150.0 mg/kg/injection, schedule: Q04DX003 (ip), vehicle: saline with Tween-80): 104 % of control
- T/C (dose: 300.0 mg/kg/injection, schedule: Q04DX003 (ip), vehicle: saline with Tween-80): 98 % of control

SMILES: CN(C=O)c1ccc(C(=O)NC(CCC(=O)OCc2ccccc2)C(=O)OCc2ccccc2)cc1 (stereo not given)
- T/C [8]: 94 % of control
- T/C [11]: 105 % of control
- T/C [9]: 89 % of control
- T/C [12]: 92 % of control
- T/C [10]: 89 % of control
- T/C [13]: 89 % of control

SMILES: CCSCCNC1=C(C)C(=O)C2=C(C1=O)[C@H](COC(N)=O)[C@]1(OC)[C@@H]3N[C@@H]3CN21
- T/C (dose: 6.0 mg/kg/injection, schedule: Q01DX001 (ip), vehicle: distilled water + Tween-80): 121 % of control
- T/C (dose: 24.0 mg/kg/injection, schedule: Q01DX001 (ip), vehicle: distilled water + Tween-80): 155 % of control

SMILES: CCCCS(=O)CC(CO)NC(=O)/C=C/c1c(C)[nH]c(=O)[nH]c1=O (stereo not given)
- T/C (dose: 0.63 mg/kg/injection, schedule: Q01DX009 (ip), vehicle: water): 115 % of control and 105 % of control
- T/C (dose: 1.25 mg/kg/injection, schedule: Q01DX009 (ip), vehicle: water): 112 % of control
- T/C (dose: 2.5 mg/kg/injection, schedule: Q01DX009 (ip), vehicle: water): 118 % of control and 121 % of control
- T/C (dose: 5.0 mg/kg/injection, schedule: Q01DX009 (ip), vehicle: water): 116 % of control
- T/C (dose: 10.0 mg/kg/injection, schedule: Q01DX009 (ip), vehicle: water): 98 % of control

SMILES: CC1(c2ccc(O)cc2)CCC(C(C)(C)c2ccc(O)cc2)CC1 (stereo not given)
- T/C [11]: 92 % of control
- T/C [12]: 90 % of control
- T/C [13]: 90 % of control

SMILES: CC(=O)c1ccc2c3ccccc3n(C)c2c1
- T/C (dose: 50.0 mg/kg/injection, schedule: Q01DX009 (ip), vehicle: Klucel (hydroxypropylcellulose) (HPC)): 93 % of control
- T/C (dose: 100.0 mg/kg/injection, schedule: Q01DX009 (ip), vehicle: Klucel (hydroxypropylcellulose) (HPC)): 93 % of control
- T/C (dose: 200.0 mg/kg/injection, schedule: Q01DX009 (ip), vehicle: Klucel (hydroxypropylcellulose) (HPC)): 93 % of control

SMILES: Cc1ccc(NC(=O)OCCSc2ccc(Cl)cc2)cc1C
- T/C [7]: 96 % of control
- T/C [8]: 92 % of control

SMILES: COc1cc2c3c(c1O)-c1c(ccc(OC)c1OC)CC3N(C)CC2 (stereo not given)
- T/C [17]: 92 % of control
- T/C [18]: 105 % of control
- T/C [19]: 97 % of control

SMILES: CCc1c(O)c2c(c(O)c1C(C)=O)C(=O)c1c(cc(O)c(C(=O)O)c1C(=O)O)C2=O
- T/C [15]: 108 % of control
- T/C [16]: 116 % of control

SMILES: COC(=O)c1cccc2c(Cl)cc3ccccc3c12
- T/C [8]: 105 % of control
- T/C [11]: 98 % of control
- T/C [9]: 105 % of control
- T/C [12]: 104 % of control
- T/C [10]: 103 % of control
- T/C [13]: 97 % of control

SMILES: CC(=O)Nc1ccc2ccccc2c1-c1c(NC(C)=O)ccc2ccccc12
- T/C [11]: 87 % of control
- T/C [13]: 95 % of control

SMILES: CN1CC(=O)NC1=S
- T/C (dose: 100.0 mg/kg/injection, schedule: Q01DX001 (ip), vehicle: saline): 87 % of control
